The values that follow come from US12240840B2, “Amide-substituted heterocyclic compounds for the treatment of conditions related to the modulation of IL-12, IL-23 and/or IFN-alpha” (BRISTOL-MYERS SQUIBB COMPANY, priority 2018, dated 2025).

The test system of the test is IFNα-induced pSTAT5 (pY694) in CD3 positive cells of human whole blood. In words: IFNα-Induced STAT Phosphorylation in Human Whole Blood. The note with it: Homo sapiens, 1 h compound incubation, 1000 U/mL recombinant human IFNα A/D for 15 min, pSTAT5 in CD3 positive population, read-out: Human WB IFNα-Induced Stat Phosph. (IC50). Format: cell-based. The method, boiled down: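 Read-out is median fluorescence intensity of pSTAT5 (pY694) in the CD3-positive gate, by flow cytometry after fix/lyse and permeabilization. Before that, whole human blood anticoagulated with EDTA or ACD-A received compound for an hour and 1000 U/mL IFNα A/D for 15 min.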

As usually defined, the IC50 is the midpoint of a concentration-inhibition curve. Consider `[2H]C([2H])([2H])NC(=O)c1nnc(NC(=O)C2CC2)cc1Nc1cccc(-c2nc(CN3C[C@@H](C)O[C@@H](C)C3)no2)c1OC` [Example 158], for which the IC50 amounted to 400 nM.

As to `[2H]C([2H])([2H])NC(=O)c1cnc(NC(=O)CC)cc1Nc1cccc(-c2noc(COCC)n2)c1OC` [Example 87], the IC50 stood at 460 nM.

As for `[2H]C([2H])([2H])NC(=O)c1nnc(NC(=O)C2CC2)cc1Nc1cccc(-c2noc(CN3CCCCS3(=O)=O)n2)c1OC` [Example 12], the IC50 was found to be 11 nM.

In the case of `[2H]C([2H])([2H])NC(=O)c1nnc(NC(=O)C2CC2)cc1Nc1cccc(-c2cnn(CCNS(C)(=O)=O)n2)c1OC` [Example 434], the IC50 amounted to 160 nM.

As for `COC(=O)N1CCN(Cc2nc(-c3cccc(Nc4cc(N)nnc4C(N)=O)c3OC)no2)CC1` [Example 105], the half-inhibitory concentration (IC50) stood at 1830 nM.

Regarding `[2H]C([2H])([2H])NC(=O)c1nnc(NC(=O)C2CC2)cc1Nc1cccc(-c2cc(C(=O)NCCC#N)n(C)n2)c1OC` [Example 477], the IC50 was found to be 1100 nM.

On to `[2H]C([2H])([2H])NC(=O)c1nnc(NC(=O)C2CC2)cc1Nc1cccc(-c2noc(C3(O)CC3)n2)c1OC` [Example 74], for which the IC50 was determined as 170 nM.

As to `COc1c(Nc2cc(NC(=O)C3CC3)nnc2C(N)=O)cccc1-c1ncc(C(=O)N(C)C)s1` [Example 246], the IC50 was determined as 30 nM.

For the compound `[2H]C([2H])([2H])NC(=O)c1nnc(NC(=O)C2CC2)cc1Nc1cccc(-c2cc(C(=O)N3CCC(CCN4CCCC4)CC3)n(C)n2)c1OC` [Example 541], the 50% inhibitory concentration (IC50) is 1390 nM.

`[2H]C([2H])([2H])NC(=O)c1nnc(NC(=O)C2CC2)cc1Nc1cccc(-c2ncc(C(=O)N3C4CCC3CN(C)C4)s2)c1OC` [Example 288]: the IC50 was determined as 90 nM.

Regarding `[2H]C([2H])([2H])NC(=O)c1nnc(NC(=O)C2CC2)cc1Nc1cccc(-c2cc(C(=O)N3CCC(N(C)C)CC3)n(C)n2)c1OC` [Example 529], the IC50 stood at 200 nM.

For the compound `[2H]C([2H])([2H])NC(=O)c1nnc(Nc2cc(C(C)(C)O)ccn2)cc1Nc1cccc(-c2cn(CCN3CCOCC3)nn2)c1OC` [Example 425], the IC50 amounted to 670 nM.

For the compound `[2H]C([2H])([2H])NC(=O)c1nnc(NC(=O)C2CC2)cc1Nc1cccc(-c2ncc(NC(C)=O)s2)c1OC` [Example 279], the IC50 was found to be 470 nM.

For the compound `[2H]C([2H])([2H])NC(=O)c1nnc(NC(=O)C2CC2)cc1Nc1cccc(-c2nc([C@@H](NC(C)=O)[C@@H](C)O)no2)c1OC` [Example 187], the IC50 came out at 1130 nM.

`[2H]C([2H])([2H])NC(=O)c1nnc(NC(=O)C2CC2)cc1Nc1cccc(-c2nc([C@@H](CO)NC(C)=O)no2)c1OC` [Example 220]: the IC50 turned out to be 200 nM.

As for `COc1c(Nc2cc(NC(=O)C3CC3)nnc2C(N)=O)cccc1-c1noc([C@@H](C)N(C)S(C)(=O)=O)n1` [Example 52], the 50% inhibitory concentration (IC50) is 90 nM.

For the compound `[2H]C([2H])([2H])NC(=O)c1nnc(Nc2cc(C(C)(C)O)ccn2)cc1Nc1cccc(-c2csc(C(=O)NCCOC)n2)c1OC` [Example 571], the concentration for half-maximal inhibition (IC50) is 1760 nM.

With `[2H]C([2H])([2H])NC(=O)c1nnc(Nc2cc(C(C)(C)O)ccn2)cc1Nc1cc(F)cc(-c2cc(C(=O)N(C)C)n(C)n2)c1OC` [Example 550], the IC50 was found to be 240 nM.

As to `[2H]C([2H])([2H])NC(=O)c1nnc(NC(=O)C2CC2)cc1Nc1cccc(-c2ncc(C(=O)N3CCC(N4CCCC4)CC3)s2)c1OC` [Example 350], the IC50 was found to be 40 nM.

Consider `[2H]C([2H])([2H])NC(=O)c1nnc(NC(=O)C2CC2)cc1Nc1cccc(-c2cnn(CC(=O)NCC)n2)c1OC` [Example 427], for which the half-inhibitory concentration (IC50) was determined as 90 nM.

With `[2H]C([2H])([2H])NC(=O)c1nnc(NC(=O)C2CC2)cc1Nc1cccc(-c2cc(C(=O)N3CC4CN(C)CC4C3)n(C)n2)c1OC` (centres unmarked) [Example 491], the IC50 was 260 nM.

For the compound `[2H]C([2H])([2H])NC(=O)c1nnc(NC(=O)C2CC2)cc1Nc1cc(F)cc(-c2cc(C(=O)N(C)CC)n(C)n2)c1OC` [Example 505], the IC50 turned out to be 180 nM.

For the compound `[2H]C([2H])([2H])NC(=O)c1cnc(NC(=O)C2CC2)cc1Nc1cccc(-c2nc(CCO)no2)c1OC` [Example 228], the IC50 is 180 nM.

Consider `[2H]C([2H])([2H])NC(=O)c1nnc(Nc2ccc(C)nn2)cc1Nc1cccc(-c2ncc(CO)s2)c1OC` [Example 393], for which the IC50 turned out to be 180 nM.

As for `[2H]C([2H])([2H])NC(=O)c1nnc(Nc2ccc(C)nn2)cc1Nc1cc(F)cc(-c2cc(C(=O)N(C)C)n(C)n2)c1OC` [Example 555], the IC50 turned out to be 40 nM.

Consider `[2H]C([2H])([2H])NC(=O)c1nnc(NC(=O)C2CC2)cc1Nc1cccc(-c2ncc(C(=O)N3CCC(N(CC)CC)CC3)s2)c1OC` [Example 343], for which the half-inhibitory concentration (IC50) turned out to be 22 nM.

With `[2H]C([2H])([2H])NC(=O)c1nnc(NC(=O)C2CC2)cc1Nc1cccc(-c2nc(CN3CCN(C(=O)NCC)CC3)no2)c1OC` [Example 136], the IC50 came out at 1130 nM.

As for `[2H]C([2H])([2H])NC(=O)c1nnc(NC(=O)C2CC2)cc1Nc1cccc(-c2ncc(CN)s2)c1OC` [Example 260], the half-inhibitory concentration (IC50) is 540 nM.

`[2H]C([2H])([2H])NC(=O)c1nnc(NC(=O)C2CC2)cc1Nc1cccc(-c2ncc(CC(=O)N(C)C)o2)c1OC` [Example 410, 6-(cyclopropanecarboxamido)-4-((3-(5-(2-(dimethylamino)-2-oxoethyl)oxazol-2-yl)-2-methoxyphenyl)amino)-N-(methyl-d3)pyridazine-3-carboxamide]: the IC50 worked out at 260 nM.

For `[2H]C([2H])([2H])NC(=O)c1nnc(NC(=O)C2CC2)cc1Nc1cccc(-n2cc(CN3CCN(S(C)(=O)=O)CC3)nn2)c1OC` [Example 4], the IC50 stood at 660 nM.

Take `[2H]C([2H])([2H])NC(=O)c1nnc(NC(=O)C2CC2)cc1Nc1cccc(-c2nc([C@@H](C)NC(=O)OC(C)(C)C)no2)c1OC` [Example 193]: the 50% inhibitory concentration (IC50) came out at 7360 nM.

As to `COc1c(Nc2cc(NC(=O)C3CC3)nnc2C(N)=O)cccc1-c1ncc(C(=O)NCCC2CCCN2C)s1` (centres unmarked) [Example 247], the IC50 stood at 100 nM.

On to `[2H]C([2H])([2H])NC(=O)c1nnc(NC(=O)C2CC2)cc1Nc1cccc(-c2ncc(C(=O)NC3CCCN(C)C3)s2)c1OC` (centres unmarked) [Example 337], for which the IC50 was 70 nM.

Consider `[2H]C([2H])([2H])NC(=O)c1nnc(NC(=O)C2CC2)cc1Nc1cccc(-c2cc(C(=O)NC(CO)CO)n(C)n2)c1OC` [Example 523], for which the IC50 stood at 1680 nM.

In the case of `[2H]C([2H])([2H])NC(=O)c1nnc(NC(=O)C2CC2)cc1Nc1cccc(-c2nc(CO)no2)c1OC` [Example 174], the IC50 amounted to 560 nM.

Take `[2H]C([2H])([2H])NC(=O)c1nnc(NC(=O)C2CC2)cc1Nc1cccc(-c2ncc(C(=O)NCC(C)N3CCCCC3)s2)c1OC` (centres unmarked) [Example 349]: the IC50 amounted to 70 nM.

Consider `CCN(CC)C1CCC(NC(=O)c2cnc(-c3cccc(Nc4cc(NC(=O)C5CC5)nnc4C(N)=O)c3OC)s2)CC1` (centres unmarked) [Example 397], for which the IC50 stood at 40 nM.

Consider `[2H]C([2H])([2H])NC(=O)c1nnc(NC(=O)C2CC2)cc1Nc1cccc(-c2nc(CN3CCN(C(=O)OC(C)(C)C)CC3=O)no2)c1OC` [Example 137], for which the IC50 stood at 2640 nM.

Take `[2H]C([2H])([2H])NC(=O)c1nnc(NC(=O)C2CC2)cc1Nc1cccc(-c2ncc(NC(=O)CC#N)s2)c1OC` [Example 284]: the IC50 was above 10000 nM.

As for `COc1c(Nc2cc(NC(=O)C3CC3)nnc2C(N)=O)cccc1-c1ncc(C(=O)N2CCC(CCO)CC2)s1` [Example 400], the IC50 worked out at 30 nM.

As for `[2H]C([2H])([2H])NC(=O)c1nnc(NC(=O)C2CC2)cc1Nc1cccc(-c2nc(CNC(=O)CN(C)C(=O)OC(C)(C)C)no2)c1OC` [Example 153], the IC50 was above 10000 nM.

For `COc1c(Nc2cc(NC(=O)C3CC3)ncc2C(N)=O)cccc1-c1cnn(CCNC(=O)CC#N)n1` [Example 446], the IC50 was 270 nM.

Consider `[2H]C([2H])([2H])NC(=O)c1cnc(Nc2ccc(OC)nn2)cc1Nc1cccc(-c2csc(C(=O)NCCOC)n2)c1OC` [Example 567], for which the IC50 came to 700 nM.

As for `[2H]C([2H])([2H])NC(=O)c1nnc(Nc2ccc(OC)nn2)cc1Nc1cccc(-c2ncc(CNC(=O)OC(C)(C)C)s2)c1OC` [Example 388], the IC50 was above 10000 nM.

`[2H]C([2H])([2H])NC(=O)c1nnc(NC(=O)C2CC2)cc1Nc1cc(F)cc(-c2cc(C(C)(C)O)n(C)n2)c1OC` [Example 489]: the IC50 came out at 290 nM.

Consider `COc1c(Nc2cc(NC(=O)C3CC3)nnc2C(N)=O)cccc1-c1ncc(C(=O)N2CCOCC2)o1` [Example 414], for which the IC50 stood at 310 nM.

For `[2H]C([2H])([2H])NC(=O)c1nnc(NC(=O)C2CC2)cc1Nc1cccc(-c2nc(CC(=O)NCCOC)no2)c1OC` [Example 176], the IC50 came out at 450 nM.

For `[2H]C([2H])([2H])NC(=O)c1nnc(NC(=O)C2CC2)cc1Nc1cccc(-c2nc(CN3CC4CNCC4C3)no2)c1OC` (centres unmarked) [Example 232], the IC50 was determined as 6510 nM.

Consider `COc1c(Nc2cc(N)nnc2C(N)=O)cccc1-c1ncc(C(=O)NCCC2CCCN2C)s1` (centres unmarked) [Example 377], for which the IC50 is 1410 nM.

Consider `COc1c(Nc2cc(NC(=O)C3CC3)nnc2C(N)=O)cccc1-c1ncc(CC(=O)N2CCOCC2)s1` [Example 244], for which the IC50 was 120 nM.

With `[2H]C([2H])([2H])NC(=O)c1nnc(NC(=O)C2CC2)cc1Nc1cccc(-c2ncc(C(=O)NC3CCC(O)CC3)s2)c1OC` (centres unmarked) [Example 306], the half-maximal inhibitory concentration (IC50) stood at 440 nM.

Regarding `[2H]C([2H])([2H])NC(=O)c1nnc(NC(=O)C2CC2)cc1Nc1cccc(-c2noc(C(C)(C)O)n2)c1OC` [Example 73], the IC50 stood at 280 nM.

In the case of `[2H]C([2H])([2H])NC(=O)c1nnc(NC(=O)C2CC2)cc1Nc1cccc(-c2cnn(CC(=O)NCCOC)n2)c1OC` [Example 426, 6-(cyclopropanecarboxamido)-4-((2-methoxy-3-(2-(2-((2-methoxyethyl)amino)-2-oxoethyl)-2H-1,2,3-triazol-4-yl)phenyl)amino)-N-trideuteromethylpyridazine-3-carboxamide], the IC50 was found to be 30 nM.
